The values that follow come from ChEMBL document CHEMBL6074631, “Design, synthesis, and evaluation of pyranochromene derivatives as membrane targeting antibacterials against Gram-positive bacteria” (Bioorg Med Chem Lett, 2024).

The subject of one data set is Enterococcus faecalis. As to the kind of experiment: Antibacterial activity against penicillin-susceptible Enterococcus faecalis ATCC29212 assessed as reduction in bacterial growth by broth microdilution assay. The class given is functional. (In general: In broth dilution the organism is exposed to a series of concentrations in liquid medium.)
Data set [1] has as its system Cell membrane. The experiment in a line: Disruption of cell membrane integrity in Staphylococcus aureus ATCC43300 assessed as blue fluorescence by DAPI staining based fluorescence assay. The class given is subcellular.
Data set [2] relates to Cell membrane. As to the kind of experiment: Induction of cytoplasmic membrane depolarization in Staphylococcus aureus ATCC43300 assessed as fold increase in fluorescence signal measured upto 20 mins DiSC3(5) dye-based fluorescence assay. In kind it is subcellular. Conditions: dose 2-16 µg/ml.
The subject of data set [3] is Staphylococcus aureus. The experiment in a line: Antibacterial activity against Staphylococcus aureus ATCC31007 assessed as reduction in bacterial growth by broth microdilution assay. The class given is functional.
Data set [4] deals with Cell membrane. As to the kind of experiment: Disruption of cell membrane integrity in Staphylococcus aureus ATCC43300 assessed as red fluorescence by DAPI staining based fluorescence assay. The class given is subcellular.
The test system of data set [5] is Cell membrane. The experiment in a line: Induction of cell membrane permeabilization in Staphylococcus aureus ATCC43300 assessed as fold increase in fluorescence intensity at 16 ug/ml by propidium iodide dye-based fluorescence assay. Conditions: dose 16.0 µg/ml. In kind it is subcellular.
The subject of data set [6] is Staphylococcus aureus. The experiment in a line: Antibacterial activity against Staphylococcus aureus ATCC25923 assessed as reduction in bacterial growth by broth microdilution assay. The class given is functional.
Data set [7] has as its system Cell membrane. As to the kind of experiment: Induction of cell membrane disruption in Staphylococcus aureus ATCC43300 assessed as increase in protein leakage. The class given is subcellular. Conditions: dose 2-16 µg/ml.
Data set [8] relates to Staphylococcus aureus. As to the kind of experiment: Antibacterial activity against Staphylococcus aureus ATCC43300 measured after 20 passages. In kind it is functional, organism-based.
For another data set, the system named is Pseudomonas aeruginosa. As to the kind of experiment: Antibacterial activity against penicillin-susceptible Pseudomonas aeruginosa ATCC27853 assessed as reduction in bacterial growth by broth microdilution assay. In kind it is functional.
A further data set relates to Acinetobacter baumannii. As to the kind of experiment: Antibacterial activity against Acinetobacter baumannii ATCC19606 assessed as reduction in bacterial growth by broth microdilution assay. The class given is functional.
The subject of data set [9] is Staphylococcus epidermidis. As to the kind of experiment: Antibacterial activity against vancomycin-susceptible Staphylococcus epidermidis ATCC12228 assessed as reduction in bacterial growth by broth microdilution assay. In kind it is functional.
The subject of data set [10] is Staphylococcus aureus. The experiment in a line: Bactericidal activity against Staphylococcus aureus ATCC43300 measured upto 12 hrs by time kill assay. In kind it is functional, organism-based. Particulars: dose 2-16 µg/ml.
Data set [11] relates to Cell membrane. As to the kind of experiment: Induction of cytoplasmic membrane depolarization in Staphylococcus aureus ATCC43300 assessed as fold increase in fluorescence signal at 16 ug/ml measured at 20 mins DiSC3(5) dye-based fluorescence assay. Conditions: dose 16.0 µg/ml. The class given is subcellular.
Data set [12] deals with Staphylococcus aureus. As to the kind of experiment: Bactericidal activity against Staphylococcus aureus ATCC43300 assessed as log reduction in CFU at 16 ug/ml by time kill assay. The class given is functional. Conditions: dose 16 µg/ml.
Data set [13] deals with Cell membrane. As to the kind of experiment: Induction of cell membrane disruption in Staphylococcus aureus ATCC43300 assessed as fold increase in protein leakage at 16 ug/ml. Particulars: dose 16.0 µg/ml. In kind it is subcellular.
The subject of the next data set is Klebsiella pneumoniae. The experiment in a line: Antibacterial activity against erythromycin-susceptible Klebsiella pneumoniae ATCC10031 assessed as reduction in bacterial growth by broth microdilution assay. In kind it is functional.
In data set [14] the test system is Cell membrane. The experiment in a line: Induction of cell membrane disruption in Staphylococcus aureus ATCC43300 assessed as fold increase in DNA leakage at 16 ug/ml. The class given is subcellular. Particulars: dose 16.0 µg/ml.
Data set [15] deals with Staphylococcus aureus. As to the kind of experiment: Antibacterial activity against […] Staphylococcus aureus ATCC43300 assessed as reduction in bacterial growth by broth microdilution assay. The class given is functional.
The next data set concerns Bacillus subtilis. The experiment in a line: Antibacterial activity against […] Bacillus subtilis ATCC9372 assessed as reduction in bacterial growth by broth microdilution assay. The class given is functional.
The subject of the next data set is Escherichia coli. As to the kind of experiment: Antibacterial activity against Escherichia coli ATCC25922 assessed as reduction in bacterial growth by broth microdilution assay. In kind it is functional.
Data set [16] in a line: Hemolytic activity in RBC (unknown origin) assessed as hemolysis. In kind it is toxicity, cell-based.
In data set [17] the test system is Staphylococcus aureus. The experiment in a line: Bactericidal activity against Staphylococcus aureus ATCC43300 assessed as eradication of bacterial cell at 16 ug/ml measured within 8 hrs by time kill assay relative to control. In kind it is functional. Particulars: dose 16 µg/ml.
In data set [18] the test system is Staphylococcus aureus. The experiment in a line: Bactericidal activity against Staphylococcus aureus ATCC43300 assessed as reduction in bacterial count at 16 ug/ml measured within 4 hrs by time kill assay relative to control. The class given is functional. Also on record: scale not given: the % may be the effect or the level left. Particulars: dose 16 µg/ml.
For data set [19], the system named is Cell membrane. As to the kind of experiment: Induction of cell membrane disruption in Staphylococcus aureus ATCC43300 assessed as increase in DNA leakage. The class given is subcellular. Particulars: dose 2-16 µg/ml.
Data set [20] relates to Staphylococcus aureus. The experiment in a line: Drug resistance, ratio of MIC for Staphylococcus aureus ATCC43300 after 20 passages exposure to MIC for Staphylococcus aureus ATCC43300 after first exposure. In kind it is functional.
In data set [21] the test system is Staphylococcus aureus. The experiment in a line: Bactericidal activity against Staphylococcus aureus ATCC43300 at 2 to 16 ug/ml by time kill assay. The class given is functional, organism-based. Particulars: dose 2-16 µg/ml, time <= 12.0 hrs.
Data set [22] deals with Cell membrane. The experiment in a line: Induction of cell membrane permeabilization in Staphylococcus aureus ATCC43300 assessed as increase in fluorescence intensity by propidium iodide dye-based fluorescence assay. The class given is subcellular. Conditions: dose 2-16 µg/ml.
For data set [23], the system named is Staphylococcus aureus. The experiment in a line: Drug resistance, ratio of MIC for Staphylococcus aureus ATCC43300 after 18 passages exposure to MIC for Staphylococcus aureus ATCC43300 after first exposure. The class given is functional.

Molecules are shown by their SMILES. In brackets after ≈: the same amount, converted by molar mass. Activity calls are given as the source filed them. The rule behind the calls is not given here.

On to `CC(=O)c1c(OCC(=O)NCCN(C)C)c2c(c3c1OC(C)(CCC=C(C)C)C=C3)OC(C)(CCC=C(C)C)C=C2` (configuration not stated), for which the MIC in the data set with Enterococcus faecalis is 1 µg/mL (≈ 1.77 µM); in the data set with Staphylococcus aureus [3] it was 2 µg/mL (≈ 3.54 µM); in the data set on Staphylococcus aureus [6], 4 µg/mL (≈ 7.08 µM); in the data set on Pseudomonas aeruginosa it was above 128 µg/mL; with Acinetobacter baumannii, 128 µg/mL (≈ 227 µM); in data set [9] it was 1 µg/mL (≈ 1.77 µM). The minimal inhibitory concentration (MIC) in the data set with Klebsiella pneumoniae was above 128 µg/mL; with Staphylococcus aureus [15], 2 µg/mL (≈ 3.54 µM); in the data set with Bacillus subtilis, 2 µg/mL (≈ 3.54 µM); with Escherichia coli, above 128 µg/mL. The result with Cell membrane [1] and in the data set on Cell membrane [4] was Active. Also, the Activity result was “Dose-dependent-effect” with Cell membrane [2]; “Dose-dependent-effect” in the data set with Cell membrane [7]; “Dose-dependent-effect” in the data set with Staphylococcus aureus [10]; 100% in the data set on Staphylococcus aureus [17]; 99.9% in the data set with Staphylococcus aureus [18]; “Dose-dependent-effect” in the data set with Cell membrane [19]. In addition, the Activity entry in the data set on Staphylococcus aureus [21] was “Time-dependent-effect”; in the data set on Cell membrane [22] it was “Dose-dependent-effect”. The fold change (FC) in the data set with Cell membrane [5] was 2.3; in the data set on Cell membrane [11] it was 4.7; in the data set on Cell membrane [13], 6.3; in the data set on Cell membrane [14] it was 6.7; in the data set with Staphylococcus aureus [20], 4. In the data set on Staphylococcus aureus [8], the result was inactive. The “log(activity)” value in the data set with Staphylococcus aureus [12] was 8.78. The HC90 in [16] (rbc) worked out at 205.8 µg/mL. Besides, the HC50 in [16] (red blood cells) was 112 µg/mL.

With `CCn1cc(C(=O)O)c(=O)c2cc(F)c(N3CCNCC3)cc21` [NORFLOXACIN], the “fold change (FC)” value with Staphylococcus aureus [23] is given as 256.

Turning to `CC[C@H](C)[C@H](NC(=O)CN)C(=O)NCC(=O)N[C@@H](C)C(=O)N[C@H](C(=O)N[C@@H](CC(C)C)C(=O)N[C@@H](CCCCN)C(=O)N[C@H](C(=O)N[C@@H](CC(C)C)C(=O)N[C@H](C(=O)N[C@H](C(=O)NCC(=O)N[C@@H](CC(C)C)C(=O)N1CCC[C@H]1C(=O)N[C@@H](C)C(=O)N[C@@H](CC(C)C)C(=O)N[C@H](C(=O)N[C@@H](CO)C(=O)N[C@@H](Cc1c[nH]c2ccccc12)C(=O)N[C@H](C(=O)N[C@@H](CCCCN)C(=O)N[C@@H](CCCNC(=N)N)C(=O)N[C@@H](CCCCN)C(=O)N[C@@H](CCCNC(=N)N)C(=O)N[C@@H](CCC(N)=O)C(=O)N[C@@H](CCC(N)=O)C(N)=O)[C@@H](C)CC)[C@@H](C)CC)[C@@H](C)O)[C@@H](C)O)C(C)C)C(C)C`, the outcome with Cell membrane [1] and in the data set with Cell membrane [4] was Active.

As a reminder, the MIC is the least concentration at which growth counts as inhibited. Broadly, the HC50 is the concentration that lyses half of the red blood cells.
